Test results reported in ChEMBL document CHEMBL4385598, “A comprehensive review of topoisomerase inhibitors as anticancer agents in the past decade” (Eur J Med Chem, 2019).

What was measured:
[1] = test system: HL-60; test: Antitumor activity against human HL60 cells assessed as reduction in cell viability by MTT assay; format: functional, cell-based
[2] = test system: L1210; test: Antitumor activity against mouse L1210 cells assessed as reduction in cell viability by MTT assay; format: functional, cell-based
[3] = test system: Ca-Ski; test: Cytotoxicity against human CaSki cells assessed as reduction in cell growth incubated for 48 hrs by SRB assay; format: functional, cell-based
[4] = test system: HeLa; test: Cytotoxicity against human HeLa cells assessed as reduction in cell growth incubated for 48 hrs by SRB assay; format: functional, cell-based
[5] = test system: T47D; test: Cytotoxicity against human T47D cells assessed as reduction in cell growth preincubated for 4 hrs in FBS starvation condition followed by incubation for 2 days by CCK8-based cell counting method; format: functional
[6] = test system: A549; test: Cytotoxicity against human A549 cells assessed as reduction in cell viability incubated for 24 hrs by MTT assay; format: functional, cell-based; conditions: A549, 24 h
[7] = biological target: DNA topoisomerase 2-alpha (Homo sapiens) (UniProt P11388); test: Inhibition of human DNA topoisomerase 2 using supercoiled pBR322 plasmid DNA as substrate at 20 uM after 30 mins by agarose gel electrophoresis method relative to control
[8] = biological target: T1, DNA topoisomerase I (Bos taurus) (UniProt F1MN93); test: Inhibition of calf thymus DNA topoisomerase 1 using supercoiled pBR322 plasmid DNA as substrate at 20 uM after 30 mins by agarose gel electrophoresis method relative to control
T1 sequence (whole entry): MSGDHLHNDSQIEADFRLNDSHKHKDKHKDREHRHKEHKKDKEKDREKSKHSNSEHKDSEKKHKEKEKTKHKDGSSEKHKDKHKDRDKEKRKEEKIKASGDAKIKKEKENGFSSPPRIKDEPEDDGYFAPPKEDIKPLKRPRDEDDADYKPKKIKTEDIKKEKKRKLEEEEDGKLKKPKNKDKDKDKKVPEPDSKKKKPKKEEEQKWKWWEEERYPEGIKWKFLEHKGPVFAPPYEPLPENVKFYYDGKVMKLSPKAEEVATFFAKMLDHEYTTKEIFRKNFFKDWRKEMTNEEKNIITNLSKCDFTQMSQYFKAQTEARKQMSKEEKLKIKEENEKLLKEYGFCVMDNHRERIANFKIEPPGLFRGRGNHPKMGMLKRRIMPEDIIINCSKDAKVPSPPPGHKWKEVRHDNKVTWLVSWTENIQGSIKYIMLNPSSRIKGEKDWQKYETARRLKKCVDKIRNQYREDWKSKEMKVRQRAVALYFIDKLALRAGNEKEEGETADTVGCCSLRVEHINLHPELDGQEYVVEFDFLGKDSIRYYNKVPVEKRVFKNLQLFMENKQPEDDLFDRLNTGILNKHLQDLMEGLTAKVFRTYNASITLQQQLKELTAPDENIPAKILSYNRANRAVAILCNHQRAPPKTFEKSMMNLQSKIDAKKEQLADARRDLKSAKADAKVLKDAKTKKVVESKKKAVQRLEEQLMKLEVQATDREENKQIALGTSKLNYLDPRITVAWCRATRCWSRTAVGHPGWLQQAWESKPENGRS

[9] = test system: HeLa; test: Antiproliferative activity against human HeLa cells assessed as reduction in cell growth incubated for 48 hrs by MTT assay; format: functional, cell-based
[10] = test system: K562/A02; test: Antiproliferative activity against human K562/A02 cells assessed as reduction in cell growth incubated for 48 hrs by MTT assay; format: functional, cell-based; conditions: K562/A02, 48 h
[11] = test system: K562; test: Antiproliferative activity against human K562 cells assessed as reduction in cell growth incubated for 48 hrs by MTT assay; format: functional, cell-based; conditions: K562, 48 h
[12] = test system: HCT-116; test: Cytotoxicity against human HCT116 cells assessed as reduction in cell growth by WST-1 assay; format: functional, cell-based

Sequence of DNA topoisomerase 2-alpha (Homo sapiens) (P11388 whole entry): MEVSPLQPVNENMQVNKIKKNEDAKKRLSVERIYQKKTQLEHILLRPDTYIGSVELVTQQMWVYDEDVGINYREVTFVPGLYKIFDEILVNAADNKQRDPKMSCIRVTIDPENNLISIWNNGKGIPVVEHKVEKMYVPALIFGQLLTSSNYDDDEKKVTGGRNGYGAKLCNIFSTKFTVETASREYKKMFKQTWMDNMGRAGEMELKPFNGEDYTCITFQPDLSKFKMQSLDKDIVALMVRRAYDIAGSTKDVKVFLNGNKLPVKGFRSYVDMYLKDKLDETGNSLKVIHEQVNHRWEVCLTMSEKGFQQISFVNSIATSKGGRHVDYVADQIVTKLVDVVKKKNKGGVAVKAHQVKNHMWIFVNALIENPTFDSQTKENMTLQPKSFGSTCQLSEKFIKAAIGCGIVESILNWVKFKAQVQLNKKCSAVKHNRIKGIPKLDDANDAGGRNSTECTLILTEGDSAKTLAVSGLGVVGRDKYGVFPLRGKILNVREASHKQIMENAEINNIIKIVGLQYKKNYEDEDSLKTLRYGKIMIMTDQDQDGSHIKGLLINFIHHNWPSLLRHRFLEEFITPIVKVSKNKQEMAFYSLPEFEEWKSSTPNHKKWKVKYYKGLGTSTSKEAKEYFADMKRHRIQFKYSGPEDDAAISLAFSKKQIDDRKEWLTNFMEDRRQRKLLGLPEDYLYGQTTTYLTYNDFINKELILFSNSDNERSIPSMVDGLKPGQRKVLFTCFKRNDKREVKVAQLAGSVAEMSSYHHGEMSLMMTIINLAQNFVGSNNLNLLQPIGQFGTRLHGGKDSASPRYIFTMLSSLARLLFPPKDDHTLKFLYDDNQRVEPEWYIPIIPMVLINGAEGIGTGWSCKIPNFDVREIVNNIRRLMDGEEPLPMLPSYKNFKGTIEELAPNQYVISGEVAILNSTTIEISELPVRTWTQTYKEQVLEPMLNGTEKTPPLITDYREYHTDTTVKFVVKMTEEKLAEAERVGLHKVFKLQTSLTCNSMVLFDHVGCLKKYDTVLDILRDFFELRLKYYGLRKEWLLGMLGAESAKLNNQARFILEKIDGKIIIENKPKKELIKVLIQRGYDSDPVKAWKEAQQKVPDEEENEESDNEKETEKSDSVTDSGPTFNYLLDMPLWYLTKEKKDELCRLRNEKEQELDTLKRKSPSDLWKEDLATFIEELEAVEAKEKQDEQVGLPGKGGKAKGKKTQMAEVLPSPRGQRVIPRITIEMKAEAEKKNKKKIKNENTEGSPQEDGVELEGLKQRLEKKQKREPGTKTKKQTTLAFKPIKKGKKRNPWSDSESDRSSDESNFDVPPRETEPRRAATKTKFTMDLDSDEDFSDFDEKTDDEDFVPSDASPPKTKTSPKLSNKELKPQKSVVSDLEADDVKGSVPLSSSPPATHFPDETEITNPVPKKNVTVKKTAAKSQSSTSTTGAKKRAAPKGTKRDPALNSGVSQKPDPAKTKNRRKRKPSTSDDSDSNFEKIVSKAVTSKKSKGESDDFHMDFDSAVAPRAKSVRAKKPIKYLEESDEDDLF

`O=C(N/N=C/c1ccc2c(c1)OCO2)c1cn(C2CC2)c2cc(N/N=C/c3ccc4c(c3)OCO4)c(F)cc2c1=O` was tested, and the IC50 [1] was at most 25 µM and the IC50 [2] was at most 25 µM.

Molecule `COc1cc(CN2CCN(c3ccccc3Cl)CC2)c2cc3[n+](cc2c1OC)CCc1cc2c(cc1-3)OCO2.[Cl-]` has an IC50 [3] of under 6 µg/mL and an IC50 [4] of under 6 µg/mL.

`COc1cc(CN2CCN(c3ccc(F)cc3)CC2)c2cc3[n+](cc2c1OC)CCc1cc2c(cc1-3)OCO2.[Cl-]` was tested, and the IC50 [3] was under 6 µg/mL and the IC50 [4] was under 6 µg/mL.

Work on `Oc1cccc(-c2cc(-c3cccc(Cl)c3)cc(-c3cccs3)n2)c1` yielded an IC50 [5] of 0.68 to 1.25 µM.

Work on `Oc1cccc(-c2cc(-c3ccccc3Cl)cc(-c3ccsc3)n2)c1` yielded an IC50 [5] of 0.68 to 1.25 µM.

`O=C(N/N=C/c1ccccc1[N+](=O)[O-])c1cn(C2CC2)c2cc(N3CCNCC3)c(F)cc2c1=O` gave an IC50 [1] of at most 25 µM and an IC50 [2] of at most 25 µM.

Molecule `CCCCCCCCCCCCCCCC(=O)O` [PALMITIC ACID] has an IC50 [6] of 150 µM.

Work on `COc1cc(CN2CCN(c3ccc(OC(F)(F)F)cc3)CC2)c2cc3[n+](cc2c1OC)CCc1cc2c(cc1-3)OCO2.[Cl-]` yielded an IC50 [3] of under 6 µg/mL and an IC50 [4] of under 6 µg/mL.

In the case of `Oc1cccc(-c2cc(-c3cccc(Cl)c3)cc(-c3ccsc3)n2)c1`, the IC50 [5] is reported as 0.68 to 1.25 µM.

Molecule `Oc1cccc(-c2cc(-c3cccc(Cl)c3)cc(-c3ccccc3)n2)c1` has an IC50 [5] of 0.68 to 1.25 µM.

`O=C(N/N=C/c1ccccc1)c1cn(C2CC2)c2cc(N/N=C/c3ccccc3)c(F)cc2c1=O` gave an IC50 [1] of at most 25 µM and an IC50 [2] of at most 25 µM.

Work on `Oc1cccc(-c2cc(-c3cccc(Cl)c3)cc(-c3ccco3)n2)c1` yielded an IC50 [5] of 0.68 to 1.25 µM.

For `COc1cc(CN2CCN(c3cccc(Cl)c3)CC2)c2cc3[n+](cc2c1OC)CCc1cc2c(cc1-3)OCO2.[Cl-]`, the IC50 [3] was under 6 µg/mL and the IC50 [4] was under 6 µg/mL.

`O=C(N/N=C/c1ccc(F)cc1)c1cn(C2CC2)c2cc(N3CCNCC3)c(F)cc2c1=O` was tested, and the IC50 [1] was at most 25 µM and the IC50 [2] was at most 25 µM.

`O=C(N/N=C/c1ccc(F)cc1)c1cn(C2CC2)c2cc(N/N=C/c3ccc(F)cc3)c(F)cc2c1=O` gave an IC50 [1] of at most 25 µM and an IC50 [2] of at most 25 µM.

For `COc1cc(CN2CCN(c3ccc(C)cc3)CC2)c2cc3[n+](cc2c1OC)CCc1cc2c(cc1-3)OCO2.[Cl-]`, the IC50 [3] was under 6 µg/mL and the IC50 [4] was under 6 µg/mL.

`Oc1cccc(-c2cc(-c3ccccc3Cl)cc(-c3ccccc3)n2)c1` showed an IC50 [5] of 0.68 to 1.25 µM.

Molecule `COc1ccc(/C=N/NC(=O)c2cn(C3CC3)c3cc(N4CCNCC4)c(F)cc3c2=O)cc1O` has an IC50 [1] of at most 25 µM and an IC50 [2] of at most 25 µM.

With `COc1cc(/C=N/NC(=O)c2cn(C3CC3)c3cc(N/N=C/c4cc(OC)c(OC)c(OC)c4)c(F)cc3c2=O)cc(OC)c1OC` the IC50 [1] was at most 25 µM and the IC50 [2] was at most 25 µM.

`O=C(N/N=C/c1ccccc1O)c1cn(C2CC2)c2cc(N/N=C/c3ccccc3O)c(F)cc2c1=O` showed an IC50 [1] of at most 25 µM and an IC50 [2] of at most 25 µM.

`CCCCC[C@H](O)[C@@H](O)/C=C/[C@@H](O)CCCCCCCC(=O)O` was tested, and the inhibition [7] was 97% and the inhibition [8] was 41%.

Work on `Oc1cccc(-c2cc(-c3ccc(Cl)cc3)cc(-c3ccccc3)n2)c1` yielded an IC50 [5] of 0.68 to 1.25 µM.

With `COc1cc([C@@H]2c3cc4c(cc3[C@@H](NC/C=C/c3ccc(CN5CCN(c6ccc([N+](=O)[O-])cc6)CC5)o3)[C@H]3COC(=O)[C@H]23)OCO4)cc(OC)c1OC` the IC50 [9] was 7.93 µM, the IC50 [10] was 6.89 µM and the IC50 [11] was 6.42 µM.

In the case of `COc1cc(CN2CCN(c3ccc(Cl)cc3)CC2)c2cc3[n+](cc2c1OC)CCc1cc2c(cc1-3)OCO2.[Cl-]`, the IC50 [3] is reported as under 6 µg/mL and the IC50 [4] is reported as under 6 µg/mL.

`COc1cc(/C=N/NC(=O)c2cn(C3CC3)c3cc(N4CCNCC4)c(F)cc3c2=O)cc(OC)c1OC` gave an IC50 [1] of at most 25 µM and an IC50 [2] of at most 25 µM.

Work on `O=C(N/N=C/c1ccccc1)c1cn(C2CC2)c2cc(N3CCNCC3)c(F)cc2c1=O` yielded an IC50 [1] of at most 25 µM and an IC50 [2] of at most 25 µM.

Work on `COc1cc(CN2CCN(c3ccc(C(F)(F)F)cc3)CC2)c2cc3[n+](cc2c1OC)CCc1cc2c(cc1-3)OCO2.[Cl-]` yielded an IC50 [3] of under 6 µg/mL and an IC50 [4] of under 6 µg/mL.

For `O=C(N/N=C/c1ccc2c(c1)OCO2)c1cn(C2CC2)c2cc(N3CCNCC3)c(F)cc2c1=O`, the IC50 [1] was at most 25 µM and the IC50 [2] was at most 25 µM.

`O=c1c(O)c(-c2cc(O)c(O)c(O)c2)oc2cc(O)cc(O)c12` [MYRICETIN] gave an IC50 [12] of 28.2 µM.

Molecule `COc1cc(CN2CCN(c3ccccc3[N+](=O)[O-])CC2)c2cc3[n+](cc2c1OC)CCc1cc2c(cc1-3)OCO2.[Cl-]` has an IC50 [3] of under 6 µg/mL and an IC50 [4] of under 6 µg/mL.

Molecule `COc1cc(CN2CCN(c3ccccc3F)CC2)c2cc3[n+](cc2c1OC)CCc1cc2c(cc1-3)OCO2.[Cl-]` has an IC50 [3] of under 6 µg/mL and an IC50 [4] of under 6 µg/mL.

`Oc1cccc(-c2cc(-c3ccc(Cl)cc3)cc(-c3ccsc3)n2)c1` gave an IC50 [5] of 0.68 to 1.25 µM.

For `Oc1ccc(-c2cc(-c3ccccc3Cl)cc(-c3ccco3)n2)cc1`, the IC50 [5] was 0.68 to 1.25 µM.

With `COc1ccc(/C=N/NC(=O)c2cn(C3CC3)c3cc(N/N=C/c4ccc(OC)c(O)c4)c(F)cc3c2=O)cc1O` the IC50 [1] was at most 25 µM and the IC50 [2] was at most 25 µM.

In the case of `Oc1cccc(-c2cc(-c3ccc(Cl)cc3)cc(-c3ccco3)n2)c1`, the IC50 [5] is reported as 0.68 to 1.25 µM.

`COc1cc(CN2CCN(c3ccc([N+](=O)[O-])cc3)CC2)c2cc3[n+](cc2c1OC)CCc1cc2c(cc1-3)OCO2.[Cl-]` was tested, and the IC50 [3] was under 6 µg/mL and the IC50 [4] was under 6 µg/mL.

For `O=C(N/N=C/c1ccccc1[N+](=O)[O-])c1cn(C2CC2)c2cc(N/N=C/c3ccccc3[N+](=O)[O-])c(F)cc2c1=O`, the IC50 [1] was at most 25 µM and the IC50 [2] was at most 25 µM.

Work on `CC[C@@]1(O)C(=O)OCc2c1cc1n(c2=O)Cc2cc3ccccc3nc2-1` yielded an inhibition [8] of 51%.

`COc1ccc(/C=N/NC(=O)c2cn(C3CC3)c3cc(N4CCNCC4)c(F)cc3c2=O)cc1` was tested, and the IC50 [1] was at most 25 µM and the IC50 [2] was at most 25 µM.

Work on `COc1ccc(/C=N/NC(=O)c2cn(C3CC3)c3cc(N/N=C/c4ccc(OC)cc4)c(F)cc3c2=O)cc1` yielded an IC50 [1] of at most 25 µM and an IC50 [2] of at most 25 µM.

`O=C(N/N=C/c1ccccc1O)c1cn(C2CC2)c2cc(N3CCNCC3)c(F)cc2c1=O` was tested, and the IC50 [1] was at most 25 µM and the IC50 [2] was at most 25 µM.
